Test results: PubChem BioAssay (NCI)
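Cells were grown in 96-well plates and exposed to each compound for 48 hours at five concentrations; endpoints were interpolated linearly between bracketing concentrations, or set to the highest concentration if not reached. The concentration for full growth arrest is given as TGI.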

Experiments:
Test in all cases: NCI tumour cell line growth inhibition, 48 h
A498 renal = tested on: A498 renal
786-0 renal = tested on: 786-0 renal
OVCAR-4 ovarian = tested on: OVCAR-4 ovarian
NCI-H226 lung = tested on: NCI-H226 lung
EKVX NSCLC = tested on: EKVX NSCLC
NCI/ADR-RES ovarian = tested on: NCI/ADR-RES ovarian
SK-MEL-2 melanoma = tested on: SK-MEL-2 melanoma
RXF 393 renal = tested on: RXF 393 renal
MDA-MB-435 = tested on: MDA-MB-435
U251 CNS = tested on: U251 CNS
HOP-92 NSCLC = tested on: HOP-92 NSCLC
OVCAR-5 ovarian = tested on: OVCAR-5 ovarian
MDA-MB-231 breast = tested on: MDA-MB-231 breast
NCI-H460 lung = tested on: NCI-H460 lung
HOP-62 NSCLC = tested on: HOP-62 NSCLC
SK-MEL-28 melanoma = tested on: SK-MEL-28 melanoma
TK-10 renal = tested on: TK-10 renal
SW-620 colon = tested on: SW-620 colon
UACC-257 melanoma = tested on: UACC-257 melanoma
UO-31 renal = tested on: UO-31 renal
BT-549 breast = tested on: BT-549 breast
PC-3 prostate = tested on: PC-3 prostate
RPMI-8226 leukemia = tested on: RPMI-8226 leukemia
K-562 leukemia = tested on: K-562 leukemia
HS 578T breast = tested on: HS 578T breast
T-47D breast = tested on: T-47D breast
A549 NSCLC = tested on: A549 NSCLC
DU-145 prostate = tested on: DU-145 prostate
ACHN renal = tested on: ACHN renal
SK-MEL-5 melanoma = tested on: SK-MEL-5 melanoma
KM12 colon = tested on: KM12 colon
IGROV1 ovarian = tested on: IGROV1 ovarian
MDA-N = tested on: MDA-N
SF-539 CNS = tested on: SF-539 CNS
NCI-H23 lung = tested on: NCI-H23 lung
SF-268 CNS = tested on: SF-268 CNS
UACC-62 melanoma = tested on: UACC-62 melanoma
SN12C renal = tested on: SN12C renal
MALME-3M melanoma = tested on: MALME-3M melanoma
SF-295 CNS = tested on: SF-295 CNS
OVCAR-3 ovarian = tested on: OVCAR-3 ovarian
SK-OV-3 ovarian = tested on: SK-OV-3 ovarian
NCI-H522 lung = tested on: NCI-H522 lung
M14 melanoma = tested on: M14 melanoma
HCT-116 colon = tested on: HCT-116 colon
MOLT-4 leukemia = tested on: MOLT-4 leukemia
COLO 205 colon = tested on: COLO 205 colon
HCC-2998 colon = tested on: HCC-2998 colon
SNB-19 CNS = tested on: SNB-19 CNS
HT29 colon = tested on: HT29 colon
CCRF-CEM leukemia = tested on: CCRF-CEM leukemia
OVCAR-8 ovarian = tested on: OVCAR-8 ovarian
HCT-15 colon = tested on: HCT-15 colon
HL-60(TB) leukemia = tested on: HL-60(TB) leukemia
LOX IMVI melanoma = tested on: LOX IMVI melanoma
CAKI-1 renal = tested on: CAKI-1 renal
SR leukemia = tested on: SR leukemia
SNB-75 CNS = tested on: SNB-75 CNS
MCF7 breast = tested on: MCF7 breast

CC(C)(Cl)C(Br)CCC(C)(Br)C(Br)CBr (configuration not stated)
TGI (A498 renal): 34.8 µM | TGI (786-0 renal): 31.2 µM | TGI (OVCAR-4 ovarian): 37.5 µM | TGI (NCI-H226 lung): 39.3 µM | TGI (EKVX NSCLC): 70.3 µM | TGI (NCI/ADR-RES ovarian): 31.6 µM | TGI (SK-MEL-2 melanoma): 30.3 µM | TGI (RXF 393 renal): 38 µM | TGI (MDA-MB-435): 35.3 µM | TGI (U251 CNS): 30.1 µM | TGI (HOP-92 NSCLC): 48.6 µM | TGI (OVCAR-5 ovarian): 31.2 µM | TGI (MDA-MB-231 breast): 25.9 µM | TGI (NCI-H460 lung): 31.1 µM | TGI (HOP-62 NSCLC): 32.5 µM | TGI (SK-MEL-28 melanoma): 33.6 µM | TGI (TK-10 renal): 62.2 µM | TGI (SW-620 colon): 31.4 µM | TGI (UACC-257 melanoma): 37.5 µM | TGI (UO-31 renal): 36.1 µM | TGI (BT-549 breast): 42.8 µM | TGI (PC-3 prostate): 64.7 µM | TGI (RPMI-8226 leukemia): 40.1 µM | TGI (K-562 leukemia): > 100 µM | TGI (HS 578T breast): 46.5 µM | TGI (T-47D breast): 46.4 µM | TGI (A549 NSCLC): 92.2 µM | TGI (DU-145 prostate): 39.2 µM | TGI (ACHN renal): 31.9 µM | TGI (SK-MEL-5 melanoma): 28 µM | TGI (KM12 colon): 36 µM | TGI (IGROV1 ovarian): 39.9 µM | TGI (MDA-N): 43.1 µM | TGI (SF-539 CNS): 29 µM | TGI (NCI-H23 lung): 38.6 µM | TGI (SF-268 CNS): 32.6 µM | TGI (UACC-62 melanoma): 48.3 µM | TGI (SN12C renal): 35.8 µM | TGI (MALME-3M melanoma): 31.8 µM | TGI (SF-295 CNS): 32.8 µM | TGI (OVCAR-3 ovarian): 29.9 µM | TGI (SK-OV-3 ovarian): > 100 µM | TGI (NCI-H522 lung): 26.5 µM | TGI (M14 melanoma): 33.7 µM | TGI (HCT-116 colon): 29.5 µM | TGI (MOLT-4 leukemia): 53.4 µM | TGI (COLO 205 colon): 31 µM | TGI (HCC-2998 colon): 25.8 µM | TGI (SNB-19 CNS): 54.6 µM | TGI (HT29 colon): 29.2 µM | TGI (CCRF-CEM leukemia): 28.7 µM | TGI (OVCAR-8 ovarian): 29.7 µM | TGI (HCT-15 colon): 42.6 µM | TGI (HL-60(TB) leukemia): 36.5 µM

CCOCCOC(=O)C1CCC(=O)N1CN(C(C)=O)c1cc(OC)ccc1OC (configuration not stated)
TGI (A498 renal): > 100 µM | TGI (786-0 renal): > 100 µM | TGI (OVCAR-4 ovarian): > 100 µM | TGI (LOX IMVI melanoma): > 100 µM | TGI (NCI-H226 lung): > 100 µM | TGI (EKVX NSCLC): > 100 µM | TGI (NCI/ADR-RES ovarian): > 100 µM | TGI (SK-MEL-2 melanoma): > 100 µM | TGI (RXF 393 renal): > 100 µM | TGI (MDA-MB-435): > 100 µM | TGI (U251 CNS): > 100 µM | TGI (HOP-92 NSCLC): > 100 µM | TGI (OVCAR-5 ovarian): > 100 µM | TGI (CAKI-1 renal): > 100 µM | TGI (MDA-MB-231 breast): > 100 µM | TGI (NCI-H460 lung): > 100 µM | TGI (HOP-62 NSCLC): > 100 µM | TGI (SK-MEL-28 melanoma): > 100 µM | TGI (TK-10 renal): > 100 µM | TGI (SW-620 colon): > 100 µM | TGI (UACC-257 melanoma): > 100 µM | TGI (UO-31 renal): > 100 µM | TGI (PC-3 prostate): > 100 µM | TGI (RPMI-8226 leukemia): > 100 µM | TGI (K-562 leukemia): > 100 µM | TGI (HS 578T breast): > 100 µM | TGI (T-47D breast): > 100 µM | TGI (A549 NSCLC): > 100 µM | TGI (DU-145 prostate): > 100 µM | TGI (ACHN renal): > 100 µM | TGI (SK-MEL-5 melanoma): > 100 µM | TGI (KM12 colon): > 100 µM | TGI (IGROV1 ovarian): > 100 µM | TGI (SR leukemia): > 100 µM | TGI (MDA-N): > 100 µM | TGI (SF-539 CNS): > 100 µM | TGI (SNB-75 CNS): > 100 µM | TGI (NCI-H23 lung): > 100 µM | TGI (SF-268 CNS): > 100 µM | TGI (UACC-62 melanoma): > 100 µM | TGI (SN12C renal): > 100 µM | TGI (MALME-3M melanoma): > 100 µM | TGI (SF-295 CNS): > 100 µM | TGI (OVCAR-3 ovarian): > 100 µM | TGI (MCF7 breast): > 100 µM | TGI (SK-OV-3 ovarian): > 100 µM | TGI (NCI-H522 lung): > 100 µM | TGI (M14 melanoma): > 100 µM | TGI (HCT-116 colon): > 100 µM | TGI (MOLT-4 leukemia): > 100 µM | TGI (COLO 205 colon): > 100 µM | TGI (SNB-19 CNS): > 100 µM | TGI (HT29 colon): > 100 µM | TGI (OVCAR-8 ovarian): > 100 µM | TGI (HCT-15 colon): > 100 µM

CCOC(=O)C(/C=N\C(=S)Nc1c(CC)cccc1C(C)(C)C)=C(/O)c1ccccc1
TGI (A498 renal): > 100 µM | TGI (786-0 renal): > 100 µM | TGI (OVCAR-4 ovarian): > 100 µM | TGI (LOX IMVI melanoma): > 100 µM | TGI (NCI-H226 lung): > 100 µM | TGI (EKVX NSCLC): > 100 µM | TGI (NCI/ADR-RES ovarian): > 100 µM | TGI (SK-MEL-2 melanoma): > 100 µM | TGI (RXF 393 renal): > 100 µM | TGI (MDA-MB-435): > 100 µM | TGI (U251 CNS): > 100 µM | TGI (OVCAR-5 ovarian): > 100 µM | TGI (CAKI-1 renal): > 100 µM | TGI (MDA-MB-231 breast): > 100 µM | TGI (HOP-62 NSCLC): > 100 µM | TGI (SK-MEL-28 melanoma): > 100 µM | TGI (SW-620 colon): > 100 µM | TGI (UACC-257 melanoma): > 100 µM | TGI (UO-31 renal): > 100 µM | TGI (PC-3 prostate): > 100 µM | TGI (RPMI-8226 leukemia): > 100 µM | TGI (K-562 leukemia): > 100 µM | TGI (HS 578T breast): 87.5 µM | TGI (T-47D breast): > 100 µM | TGI (A549 NSCLC): > 100 µM | TGI (DU-145 prostate): > 100 µM | TGI (ACHN renal): > 100 µM | TGI (SK-MEL-5 melanoma): > 100 µM | TGI (KM12 colon): > 100 µM | TGI (IGROV1 ovarian): > 100 µM | TGI (SR leukemia): > 100 µM | TGI (MDA-N): > 100 µM | TGI (SF-539 CNS): > 100 µM | TGI (SNB-75 CNS): > 100 µM | TGI (NCI-H23 lung): > 100 µM | TGI (SF-268 CNS): > 100 µM | TGI (UACC-62 melanoma): > 100 µM | TGI (SN12C renal): > 100 µM | TGI (MALME-3M melanoma): > 100 µM | TGI (SF-295 CNS): > 100 µM | TGI (MCF7 breast): > 100 µM | TGI (SK-OV-3 ovarian): > 100 µM | TGI (NCI-H522 lung): > 100 µM | TGI (M14 melanoma): > 100 µM | TGI (HCT-116 colon): > 100 µM | TGI (MOLT-4 leukemia): > 100 µM | TGI (COLO 205 colon): > 100 µM | TGI (HCC-2998 colon): > 100 µM | TGI (HT29 colon): > 100 µM | TGI (CCRF-CEM leukemia): > 100 µM | TGI (OVCAR-8 ovarian): > 100 µM | TGI (HCT-15 colon): > 100 µM | TGI (HL-60(TB) leukemia): > 100 µM
